Active and inactive are the calls of the source. The calls are words filed in the database; no cut-off is given here.
Key:
U-937 [1] = test: Induction of apoptosis in human U-937 cells assessed as increased p21 protein expression level at 1 to 5 uM incubated for 24 hrs by immunoblotting analysis; assay type: functional, cell-based; conditions: dose 1-5 µM
HCT-116 [2] = test: Induction of apoptosis in human HCT-116 cells assessed as increased p21 protein expression level at 1 to 5 uM incubated for 24 hrs by immunoblotting analysis; assay type: functional, cell-based; conditions: dose 1-5 µM
[3] = target: T1, Histone deacetylase (Homo sapiens) (UniProt Q13547+O15379+Q9UBN7+Q92769+Q9UQL6+Q8WUI4+Q9BY41+Q96DB2+P56524+Q9UKV0+Q969S8); test: Inhibition of HDAC in human U-937 cells assessed as upregulation of acetyl alpha-tubulin level at 5 uM incubated for 24 hrs by immunoblotting analysis; assay type: cell-based
U-937 [4] = test: Induction of cell cycle arrest in human U-937 assessed as decrease accumulation of cells in G1 phase at 5 uM incubated for 24 hrs by FACS analysis; assay type: functional, cell-based
[5] = target: T1, Histone deacetylase (Homo sapiens); test: Inhibition of HDAC in human U-937 cells assessed as upregulation of histone H3 acetylation at lysine 14 residue at 5 uM incubated for 24 hrs by immunoblotting analysis; assay type: cell-based
U-937 [6] = test: Induction of cell cycle arrest in human U-937 assessed as increase accumulation of cells in G2/M phase at 1 to 5 uM incubated for 24 hrs by FACS analysis; assay type: functional, cell-based; conditions: dose 1-5 µM
U-937 [7] = test: Cytotoxicity against human U-937 cells assessed as cell death at 5 uM incubated for 24 hrs by PI staining based FACS analysis relative to control; assay type: functional
U-937 [8] = test: Induction of cell cycle arrest in human U-937 assessed as reduced accumulation of cells in S phase at 1 uM incubated for 24 hrs by FACS analysis; assay type: functional, cell-based
[9] = target: T1, Histone deacetylase (Homo sapiens); test: Inhibition of HDAC in human HCT-116 cells assessed as upregulation of acetyl alpha-tubulin level at 1 to 5 uM incubated for 24 hrs by immunoblotting analysis; assay type: cell-based; conditions: dose 1-5 µM
HCT-116 [10] = test: Cytotoxicity against human HCT-116 cells assessed as cell death at 5 uM incubated for 24 hrs by PI staining based FACS analysis relative to control; assay type: functional
HCT-116 [11] = test: Cytotoxicity against human HCT-116 cells assessed as reduction in cell death at 1 uM incubated for 24 hrs by PI staining based FACS analysis; assay type: functional
HCT-116 [12] = test: Induction of cell cycle arrest in human HCT-116 assessed as accumulation of cells in G2/M phase at 1 to 5 uM incubated for 24 hrs by FACS analysis relative to SAHA; assay type: functional; conditions: dose 1-5 µM
Histone deacetylase = assay type: subcellular, Homo sapiens, Nucleus; conditions: hela
Description: Inhibition of HDAC in human HeLa cell nuclear extract using Kac fluorogenic peptide as substrate containing residues 379-382 of p53 by fluorescence assay

HCT-116 [13] = test: Cytotoxicity against human HCT-116 cells assessed as cell viability incubated for 24 hrs by MTT assay; assay type: functional, cell-based; conditions: HCT-116, 24 h
[14] = target: T2, Protein deacetylase HDAC6 (Homo sapiens, UniProt Q9UBN7); test: Inhibition of HDAC6 (unknown origin) using fluorogenic peptide as the substrate containing residues 379-382 of p53at 10 uM pre-incubated for 15 mins followed by substrate addition incubated for 30 mins by multimode plate reader
T2 sequence (Q9UBN7 whole entry): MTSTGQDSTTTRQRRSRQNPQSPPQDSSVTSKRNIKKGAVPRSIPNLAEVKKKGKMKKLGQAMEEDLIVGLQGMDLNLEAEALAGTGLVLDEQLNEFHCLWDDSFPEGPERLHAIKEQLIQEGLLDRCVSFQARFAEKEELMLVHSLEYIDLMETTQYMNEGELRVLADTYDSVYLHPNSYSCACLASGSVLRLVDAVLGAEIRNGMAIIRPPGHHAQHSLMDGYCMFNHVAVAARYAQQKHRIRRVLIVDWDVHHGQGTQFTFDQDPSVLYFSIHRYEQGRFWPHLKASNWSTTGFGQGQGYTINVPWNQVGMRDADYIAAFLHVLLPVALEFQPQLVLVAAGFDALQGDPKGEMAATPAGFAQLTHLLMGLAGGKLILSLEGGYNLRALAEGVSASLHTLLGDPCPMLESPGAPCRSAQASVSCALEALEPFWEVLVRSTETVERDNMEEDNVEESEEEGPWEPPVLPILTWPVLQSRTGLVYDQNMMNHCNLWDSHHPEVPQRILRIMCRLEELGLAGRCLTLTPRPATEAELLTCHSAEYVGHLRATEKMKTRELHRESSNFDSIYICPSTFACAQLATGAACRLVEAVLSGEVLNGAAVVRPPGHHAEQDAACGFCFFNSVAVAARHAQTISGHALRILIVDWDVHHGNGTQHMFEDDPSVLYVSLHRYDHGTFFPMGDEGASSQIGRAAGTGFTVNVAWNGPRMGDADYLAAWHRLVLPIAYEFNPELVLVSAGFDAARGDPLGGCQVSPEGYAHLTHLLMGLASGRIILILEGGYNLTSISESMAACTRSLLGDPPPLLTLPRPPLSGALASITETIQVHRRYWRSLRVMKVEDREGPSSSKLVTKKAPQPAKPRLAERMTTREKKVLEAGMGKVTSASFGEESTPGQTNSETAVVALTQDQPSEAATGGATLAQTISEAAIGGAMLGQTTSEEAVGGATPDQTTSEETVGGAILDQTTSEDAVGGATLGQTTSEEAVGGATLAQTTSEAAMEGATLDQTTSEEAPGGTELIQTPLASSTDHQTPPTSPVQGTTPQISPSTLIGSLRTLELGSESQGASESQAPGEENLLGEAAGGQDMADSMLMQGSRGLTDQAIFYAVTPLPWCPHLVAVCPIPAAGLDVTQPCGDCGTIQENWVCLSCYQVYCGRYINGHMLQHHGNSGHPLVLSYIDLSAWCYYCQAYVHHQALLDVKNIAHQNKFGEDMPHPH

[15] = target: T1, Histone deacetylase (Homo sapiens); test: Inhibition of HDAC in human HCT-116 cells assessed as upregulation of histone H3 acetylation at lysine 14 residue at 1 uM incubated for 24 hrs by immunoblotting analysis; assay type: cell-based
HCT-116 [16] = test: Induction of cell cycle arrest in human HCT-116 assessed as decrease accumulation of cells in S phase at 1 to 5 uM incubated for 24 hrs by FACS analysis; assay type: functional, cell-based; conditions: dose 1-5 µM
U-937 [17] = test: Induction of cell cycle arrest in human U-937 assessed as decrease accumulation of cells in S phase at 1 to 5 uM incubated for 24 hrs by FACS analysis; assay type: functional, cell-based; conditions: dose 1-5 µM
U-937 [18] = test: Induction of cell cycle arrest in human U-937 assessed as decrease accumulation of cells in G1 phase at 1 to 5 uM incubated for 24 hrs by FACS analysis; assay type: functional, cell-based; conditions: dose 1-5 µM
U-937 [19] = test: Cytotoxicity against human U-937 cells assessed as cell viability incubated for 24 hrs by MTT assay; assay type: functional, cell-based; conditions: U-937, 24 h
HCT-116 [20] = test: Induction of cell cycle arrest in human HCT-116 assessed as decrease accumulation of cells in G1 phase at 1 to 5 uM incubated for 24 hrs by FACS analysis; assay type: functional, cell-based; conditions: dose 1-5 µM
[21] = target: T1, Histone deacetylase (Homo sapiens); test: Inhibition of HDAC in human U-937 cells assessed as upregulation of histone H3 acetylation at lysine 14 residue at 1 uM incubated for 24 hrs by immunoblotting analysis; assay type: cell-based
[22] = target: T3, Protein deacetylase HDAC6 (Homo sapiens) (UniProt Q9UBN7); test: Inhibition of HDAC6 (unknown origin) at 10 uM using fluorogenic peptide as substrate pre-incubated for 15 mins followed by substrate addition incubated for 30 mins by fluorescence assay; conditions: time 45.0 min
T3 sequence (whole entry): T2 sequence (Q9UBN7 whole entry)

Histone deacetylase 1 [23] = target: T4, Histone deacetylase 1 (Homo sapiens, UniProt Q13547); test: Inhibition of HDAC1 (unknown origin) using fluorogenic peptide as the substrate containing residues 379-382 of p53 pre-incubated for 15 mins followed by substrate addition incubated for 30 mins by multimode plate reader
T4 sequence (Q13547 whole entry, the tested form may be a part): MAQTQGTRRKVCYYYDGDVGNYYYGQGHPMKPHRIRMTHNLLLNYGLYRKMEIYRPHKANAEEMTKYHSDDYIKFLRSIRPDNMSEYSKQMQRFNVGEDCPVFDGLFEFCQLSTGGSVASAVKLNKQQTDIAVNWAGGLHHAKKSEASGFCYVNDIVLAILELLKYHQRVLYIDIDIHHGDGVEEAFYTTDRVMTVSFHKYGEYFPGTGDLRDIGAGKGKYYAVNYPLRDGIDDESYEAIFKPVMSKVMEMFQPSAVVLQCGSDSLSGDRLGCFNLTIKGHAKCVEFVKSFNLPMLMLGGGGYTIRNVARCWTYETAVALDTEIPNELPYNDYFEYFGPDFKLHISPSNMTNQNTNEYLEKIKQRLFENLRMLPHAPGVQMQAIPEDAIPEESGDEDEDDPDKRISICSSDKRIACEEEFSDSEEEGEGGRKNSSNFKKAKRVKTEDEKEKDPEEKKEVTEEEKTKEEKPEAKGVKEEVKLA

Histone deacetylase 1 [24] = target: T4, Histone deacetylase 1; test: Inhibition of HDAC1 (unknown origin) at 10 uM using fluorogenic peptide as substrate pre-incubated for 15 mins followed by substrate addition incubated for 30 mins by fluorescence assay relative to control; conditions: time 45.0 min
U-937 [25] = test: Cytotoxicity against human U-937 cells assessed as cell death at 1 to 5 uM incubated for 24 hrs by PI staining based FACS analysis relative to control; assay type: functional; conditions: dose 1-5 µM
[26] = target: Histone deacetylase 4 (Homo sapiens) (UniProt P56524); test: Inhibition of HDAC4 (unknown origin) at 10 uM using fluorogenic peptide as substrate pre-incubated for 15 mins followed by substrate addition incubated for 30 mins by fluorescence assay; conditions: time 45.0 min
Histone deacetylase 4 (Homo sapiens), sequence (P56524 whole entry): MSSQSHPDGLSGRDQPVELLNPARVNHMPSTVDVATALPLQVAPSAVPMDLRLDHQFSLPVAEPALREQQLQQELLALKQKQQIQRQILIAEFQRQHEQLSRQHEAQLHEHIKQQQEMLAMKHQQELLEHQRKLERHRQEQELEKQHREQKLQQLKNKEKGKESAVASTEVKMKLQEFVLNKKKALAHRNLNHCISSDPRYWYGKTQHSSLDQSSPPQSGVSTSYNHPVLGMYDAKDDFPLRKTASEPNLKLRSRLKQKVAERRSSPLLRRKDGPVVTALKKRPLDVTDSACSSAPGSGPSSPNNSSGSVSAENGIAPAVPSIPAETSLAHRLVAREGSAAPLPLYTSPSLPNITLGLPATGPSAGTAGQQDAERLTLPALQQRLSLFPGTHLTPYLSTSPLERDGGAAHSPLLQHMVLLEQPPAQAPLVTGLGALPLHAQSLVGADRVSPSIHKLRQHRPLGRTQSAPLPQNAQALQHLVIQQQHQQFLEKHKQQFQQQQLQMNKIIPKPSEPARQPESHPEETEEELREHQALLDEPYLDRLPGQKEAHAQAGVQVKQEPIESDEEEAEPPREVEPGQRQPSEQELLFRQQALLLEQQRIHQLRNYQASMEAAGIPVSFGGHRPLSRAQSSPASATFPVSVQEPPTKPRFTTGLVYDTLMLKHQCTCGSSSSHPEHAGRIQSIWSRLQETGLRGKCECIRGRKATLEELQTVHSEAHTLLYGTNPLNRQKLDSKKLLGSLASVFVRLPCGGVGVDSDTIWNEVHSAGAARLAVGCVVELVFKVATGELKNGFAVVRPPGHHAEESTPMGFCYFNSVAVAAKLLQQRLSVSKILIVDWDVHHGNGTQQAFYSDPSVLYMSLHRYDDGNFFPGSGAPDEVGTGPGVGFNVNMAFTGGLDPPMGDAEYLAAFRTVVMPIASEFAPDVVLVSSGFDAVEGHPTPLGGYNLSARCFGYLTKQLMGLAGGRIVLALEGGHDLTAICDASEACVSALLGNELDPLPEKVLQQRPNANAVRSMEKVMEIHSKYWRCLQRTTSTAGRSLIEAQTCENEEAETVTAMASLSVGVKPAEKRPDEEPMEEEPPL

U-937 [27] = test: Induction of cell cycle arrest in human U-937 assessed as increase accumulation of cells in G2/M phase at 5 uM incubated for 24 hrs by FACS analysis; assay type: functional, cell-based
HCT-116 [28] = test: Induction of cell cycle arrest in human HCT-116 assessed as accumulation of cells in G2/M phase at 5 uM incubated for 24 hrs by FACS analysis; assay type: functional, cell-based
U-937 [29] = test: Induction of cell cycle arrest in human U-937 assessed as decrease accumulation of cells in S phase at 5 uM incubated for 24 hrs by FACS analysis; assay type: functional, cell-based
[30] = target: Histone deacetylase 2 (Homo sapiens) (UniProt Q92769); test: Inhibition of HDAC2 (unknown origin) at 10 uM using fluorogenic peptide as substrate pre-incubated for 15 mins followed by substrate addition incubated for 30 mins by fluorescence assay; conditions: time 45.0 min
Histone deacetylase 2 (Homo sapiens), sequence (Q92769 whole entry): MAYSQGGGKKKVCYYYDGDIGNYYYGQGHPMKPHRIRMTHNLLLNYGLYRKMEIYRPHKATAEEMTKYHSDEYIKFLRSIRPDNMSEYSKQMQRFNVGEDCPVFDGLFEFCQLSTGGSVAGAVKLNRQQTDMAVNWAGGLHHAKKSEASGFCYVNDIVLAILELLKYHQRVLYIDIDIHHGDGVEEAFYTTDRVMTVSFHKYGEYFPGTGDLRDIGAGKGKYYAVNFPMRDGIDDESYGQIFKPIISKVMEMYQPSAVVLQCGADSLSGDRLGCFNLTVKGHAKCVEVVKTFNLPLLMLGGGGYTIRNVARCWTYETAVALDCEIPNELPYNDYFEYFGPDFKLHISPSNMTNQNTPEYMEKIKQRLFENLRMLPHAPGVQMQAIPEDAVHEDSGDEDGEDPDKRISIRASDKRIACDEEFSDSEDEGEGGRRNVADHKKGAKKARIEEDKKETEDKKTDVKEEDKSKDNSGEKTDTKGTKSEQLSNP

[31] = target: Histone deacetylase 3 (Homo sapiens) (UniProt O15379); test: Inhibition of HDAC3 (unknown origin) at 10 uM using fluorogenic peptide as substrate pre-incubated for 15 mins followed by substrate addition incubated for 30 mins by fluorescence assay; conditions: time 45.0 min
Histone deacetylase 3 (Homo sapiens), sequence (O15379 whole entry): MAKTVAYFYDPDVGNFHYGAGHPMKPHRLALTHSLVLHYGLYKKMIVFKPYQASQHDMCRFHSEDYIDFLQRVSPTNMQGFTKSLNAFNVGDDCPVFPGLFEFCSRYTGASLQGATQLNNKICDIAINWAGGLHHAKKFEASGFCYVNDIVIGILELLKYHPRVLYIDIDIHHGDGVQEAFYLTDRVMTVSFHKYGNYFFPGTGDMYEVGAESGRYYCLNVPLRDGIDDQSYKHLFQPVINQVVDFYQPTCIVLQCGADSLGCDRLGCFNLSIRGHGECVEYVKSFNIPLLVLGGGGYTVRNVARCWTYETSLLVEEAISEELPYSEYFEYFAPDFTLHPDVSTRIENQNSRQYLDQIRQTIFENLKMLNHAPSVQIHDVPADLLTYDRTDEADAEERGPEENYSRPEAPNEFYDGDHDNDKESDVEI

[32] = target: T5, Histone deacetylase 8 (Homo sapiens) (UniProt Q9BY41); test: Inhibition of HDAC8 (unknown origin) at 10 uM using fluorogenic peptide as substrate pre-incubated for 15 mins followed by substrate addition incubated for 30 mins by fluorescence assay; conditions: time 45.0 min
T5 sequence (whole entry): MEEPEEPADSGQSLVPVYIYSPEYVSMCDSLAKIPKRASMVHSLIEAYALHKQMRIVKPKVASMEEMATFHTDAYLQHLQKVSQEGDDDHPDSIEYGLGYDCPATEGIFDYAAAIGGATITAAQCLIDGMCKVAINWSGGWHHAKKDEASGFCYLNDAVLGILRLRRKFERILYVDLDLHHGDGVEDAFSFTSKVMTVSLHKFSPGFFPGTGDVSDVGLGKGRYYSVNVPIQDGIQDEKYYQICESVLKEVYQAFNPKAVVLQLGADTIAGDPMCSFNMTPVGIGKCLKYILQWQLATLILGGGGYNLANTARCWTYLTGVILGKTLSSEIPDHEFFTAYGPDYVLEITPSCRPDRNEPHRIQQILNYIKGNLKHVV

U-937 [33] = test: Cytotoxicity against human U-937 cells assessed as cell death at 1 uM incubated for 24 hrs by PI staining based FACS analysis relative to control; assay type: functional

SMILES | Activity (U-937 [1]) | Activity (HCT-116 [2]) | Activity [3] | Activity (U-937 [4]) | Activity [5] | Activity (U-937 [6]) | Activity (U-937 [7]) [%] | Activity (U-937 [8]) | Activity [9] | Activity (HCT-116 [10]) [%] | Activity (HCT-116 [11]) | Activity (HCT-116 [12]) | IC50 (Histone deacetylase) [nM] | Activity [21] | also measured
O=C(CCCCCN1C(=O)CC(c2cccc(Br)c2)Sc2ccccc21)NO (racemic) | Active | Active | Active | Active | Active | Active | ~12 | Active | Active | 22 | Active | Active | 293.3 | – | –
O=C(CCCCCN1C(=O)CC(c2ccc(Cl)c(Cl)c2)S(=O)(=O)c2ccccc21)NO (racemic) | Active | Active | Active | – | Active | Active | – | – | Active | – | – | Active | 27.1 | Active | IC50 (HCT-116 [13]): 18500 nM; IC50 [14]: 12.3 nM; Activity [15]: Active; Activity (HCT-116 [16]): Active; Activity (U-937 [17]): Active; Activity (U-937 [18]): Active; IC50 (U-937 [19]): 13900 nM; Activity (HCT-116 [20]): Active; inhibition [22]: 99.5%; IC50 (Histone deacetylase 1 [23]): 88.2 nM; inhibition (Histone deacetylase 1 [24]): 96.9%; Activity (U-937 [25]): ~6%
O=C(CCCCCN1C(=O)CC(c2ccc(Cl)c(Cl)c2)Sc2ccccc21)NO (racemic) | Active | Active | Active | Active | Active | Active | ~12 | Active | Active | 22 | Active | Active | 229.2 | – | –
O=C(NCC1(c2nc(-c3ccccc3)cs2)CCOCC1)c1cccc(-c2noc(C(F)(F)F)n2)c1 | – | – | – | – | – | – | – | – | – | – | – | – | – | – | inhibition [26]: 99.2%
O=C(CCCCCN1C(=O)C[C@@H](c2ccc(Cl)c(Cl)c2)Sc2ccccc21)NO | Active | Active | – | Active | Active | Active | ~12 | Active | Active | 22 | Active | Active | 165.1 | Active | –
O=C(CCCCCCC(=O)Nc1ccccc1)NO [VORINOSTAT] | – | – | – | Active | – | – | ~10 | – | – | – | – | – | – | – | Activity (U-937 [27]): Active; Activity (HCT-116 [28]): Active; Activity (U-937 [29]): Active
O=C(CCCCCN1C(=O)CC(c2ccccc2)S(=O)(=O)c2ccccc21)NO (racemic) | Active | Active | Active | Active | Active | Active | ~12 | Active | Active | – | – | ~75% | 38.6 | Active | inhibition [26]: 51.4%; inhibition [30]: 100%; inhibition [31]: 99.3%; IC50 [14]: 23.2 nM; Activity [15]: Active; inhibition [32]: 87.3%; Activity (U-937 [33]): 12%; inhibition [22]: 98.8%; IC50 (Histone deacetylase 1 [23]): 115 nM; inhibition (Histone deacetylase 1 [24]): 99.1%

Reference: ChEMBL document CHEMBL5365438, “2-Substituted 1,5-benzothiazepine-based HDAC inhibitors exert anticancer activities on human solid and acute myeloid leukemia cell lines” (Bioorg Med Chem, 2023)
